We go through four compounds from ChEMBL document CHEMBL3108744, “Heronamides D-F, polyketide macrolactams from the deep-sea-derived Streptomyces sp. SCSIO 03032” (J Nat Prod, 2014).

One assay has as its system Escherichia coli. The experiment in a line: Antibacterial activity against Escherichia coli ATCC 25922 assessed as growth inhibition by broth microdilution method. Format: functional. (In general: In broth dilution the organism is exposed to a series of concentrations in liquid medium.)
Another assay relates to Bacillus subtilis. The experiment in a line: Antibacterial activity against Bacillus subtilis SCSIO BS01 assessed as growth inhibition by broth microdilution method. Format: functional.
The test system of the next assay is MCF7. Briefly: Cytotoxicity against human MCF7 cells by SRB assay. Format: functional, cell-based. For orientation: In SRB staining, fixed cells bind dye roughly in proportion to their protein.
For a further assay, the system named is Staphylococcus aureus. Briefly: Antibacterial activity against Staphylococcus aureus ATCC 29213 assessed as growth inhibition by broth microdilution method. Format: functional.
A further assay has as its system Candida albicans. Briefly: Antifungal activity against Candida albicans ATCC 10231 assessed as growth inhibition by broth microdilution method. Format: functional.
The next assay has as its system NCI-H460. Briefly: Cytotoxicity against human NCI-H460 cells by SRB assay. Format: functional, cell-based.
The test system of another assay is SF-268. Briefly: Cytotoxicity against human SF268 cells by SRB assay. Format: functional, cell-based.
Another assay deals with Bacillus thuringiensis. Briefly: Antibacterial activity against Bacillus thuringiensis SCSIO BT01 assessed as growth inhibition by broth microdilution method. Format: functional.
In assay [1] the test system is Radical scavenging activity. The experiment in a line: Antioxidant activity of the compound assessed as DPPH radical scavenging activity after 30 mins by spectrophotometric analysis. Format: functional. A general note: The DPPH test is a chemical assay of radical scavenging.
Assay [2] relates to HUVEC. The experiment in a line: Antimigratory activity in HUVEC at 11.8 uM up to 72 hrs by scratch wound healing assay relative to DMSO-treated control. Format: functional, cell-based. To be noted: Homo sapiens.
The subject of assay [3] is HUVEC. The experiment in a line: Antimigratory activity in HUVEC at 17.1 uM up to 72 hrs by scratch wound healing assay relative to DMSO-treated control. Format: functional, cell-based. To be noted: Homo sapiens.

The source made the active and inactive calls. The calls are words filed in the database; no cut-off is given here. Where only a bound is given, the exact number is not on record here.

On to `C/C=C/C=C/C[C@@H]1C/C=C/C=C(C)/C=C/C=C\[C@@H](OC(C)=O)[C@@H](OC(C)=O)/C=C(C)/C=C/C=C/C(=O)N1`, for which the MIC in the assay with Escherichia coli, with Bacillus subtilis, with Staphylococcus aureus, in the assay on Candida albicans and with Bacillus thuringiensis was above 128 µg/mL throughout. Further, the IC50 was determined as 15.4 µM in the assay with MCF7, 56.4 µM in the assay on NCI-H460 and 23.3 µM in the assay with SF-268.
As for `C/C=C/C=C/C[C@@H]1C/C=C/C=C(C)/C=C/C=C\[C@@H](O)[C@@H](O)/C=C(C)/C=C/C=C/C(=O)N1`, the MIC in the assay with Escherichia coli, with Bacillus subtilis, in the assay on Staphylococcus aureus, in the assay on Candida albicans and with Bacillus thuringiensis was above 128 µg/mL in each case. The IC50 in the assay with MCF7, in the assay on NCI-H460 and with SF-268 was above 100 µM throughout. The result (in assay [1]; with HUVEC [2]) was inactive.
`C/C=C/C=C/C[C@@H]1C[C@@H]2/C=C/C(C)=C/[C@H]3C=C[C@@H](O)[C@@H](O)[C@@H]3/C(C)=C/C=C/[C@H]2C(=O)N1`: the MIC with Escherichia coli, with Bacillus subtilis, in the assay with Staphylococcus aureus, in the assay with Candida albicans and in the assay with Bacillus thuringiensis was above 128 µg/mL throughout. For the same compound, the IC50 in the assay with MCF7, with NCI-H460 and with SF-268 was above 100 µM throughout. The outcome in assay [1] was inactive.
As for `C/C=C/C=C/C[C@@H]1C[C@H](O)[C@H]2[C@@H]3/C(C)=C/[C@H]4C=C[C@@H](O)[C@@H](O)[C@@H]4/C(C)=C/C=C\[C@@H]3C(=O)N12`, the MIC in the assay with Escherichia coli, in the assay on Bacillus subtilis, with Staphylococcus aureus, in the assay on Candida albicans and in the assay with Bacillus thuringiensis was above 128 µg/mL in each case. Moreover, the IC50 in the assay with MCF7, with NCI-H460 and with SF-268 was above 100 µM in each case. Besides, the result (in assay [1]; in the assay with HUVEC [3]) was inactive.

What is called MIC is the lowest concentration that inhibits growth of the organism. For orientation: IC50 means the concentration at which inhibition is half-maximal.
